Experimental data as given in ChEMBL document CHEMBL1240316, “An oxidation-sensing mechanism is used by the global regulator MgrA in Staphylococcus aureus” (2006).
In brackets after ≈: the same amount, converted by molar mass. Activity calls are given as the source filed them. No cut-off for these calls is given here.

What was measured:
Staphylococcus aureus [1] = assay: Antimicrobial activity against Staphylococcus aureus; type: functional
Staphylococcus aureus [2] = assay: Antimicrobial activity against Staphylococcus aureus expressing mgrA C12S mutant gene; type: functional
Staphylococcus aureus [3] = assay: Antimicrobial activity against Staphylococcus aureus expressing mgrA C12S mutant gene assessed as visible growth at 1.4 ug/ml after 24 hrs in presence of 20 uM paraquat; type: functional, organism-based
Staphylococcus aureus [4] = assay: Antimicrobial activity against Staphylococcus aureus expressing mgrA C12S mutant gene harboring pYJ335-His-mgrA C12S assessed as highest concentration at which growth was visible after 24 hrs; type: functional
Staphylococcus aureus [5] = assay: Antimicrobial activity against Staphylococcus aureus expressing mgrA C12S mutant gene harboring Pyj335-His-mgrA C12S assessed as highest concentration at which growth was visible after 24 hrs in presence of 20 uM paraquat; type: functional
Staphylococcus aureus [6] = assay: Antimicrobial activity against Staphylococcus aureus expressing mgrA C12S mutant gene harboring plasmid Pyj335 assessed as highest concentration at which growth was visible after 24 hrs; type: functional
Staphylococcus aureus [7] = assay: Antimicrobial activity against Staphylococcus aureus expressing mgrA C12S mutant gene harboring pYJ335 assessed as highest concentration at which growth was visible after 24 hrs in presence of 20 uM paraquat; type: functional
Staphylococcus aureus [8] = assay: Antimicrobial activity against Staphylococcus aureus expressing mgrAC12S mutant gene harboring plasmid Pyj335-His-mgrA C12S assessed as highest concentration at which growth was visible after 24 hrs in presence of 20 uM paraquat; type: functional
Staphylococcus aureus [9] = assay: Antimicrobial activity against Staphylococcus aureus expressing mgrAC12S mutant gene assessed as highest concentration at which growth was visible after 24 hrs; type: functional
Staphylococcus aureus [10] = assay: Antimicrobial activity against Staphylococcus aureus expressing mgrAC12S mutant gene assessed as highest concentration at which growth was visible after 24 hrs in presence of 20 uM paraquat; type: functional
Staphylococcus aureus [11] = assay: Antimicrobial activity against Staphylococcus aureus assessed as highest concentration at which growth was visible after 24 hrs; type: functional
Staphylococcus aureus [12] = assay: Antimicrobial activity against Staphylococcus aureus assessed as highest concentration at which growth was visible after 24 hrs in presence of 20 uM paraquat; type: functional
Staphylococcus aureus [13] = assay: Antimicrobial activity against Staphylococcus aureus expressing mgrAC12S mutant gene assessed as visible growth at 1.1 ug/ml after 24 hrs in presence of 100 uM hydrogen peroxide; type: functional, organism-based
Staphylococcus aureus [14] = assay: Antimicrobial activity against Staphylococcus aureus assessed as visible growth at 1.1 ug/ml after 24 hrs in presence of 100 uM hydrogen peroxide; type: functional, organism-based
Staphylococcus aureus [15] = assay: Antimicrobial activity against Staphylococcus aureus expressing mgrA C12S mutant gene assessed as visible growth at 2.2 ug/ml after 24 hrs; type: functional, organism-based
Staphylococcus aureus [16] = assay: Antimicrobial activity against Staphylococcus aureus expressing mgrA C12S mutant gene assessed as visible growth at 2.6 ug/ml after 24 hrs in presence of 20 uM paraquat; type: functional, organism-based
Staphylococcus aureus [17] = assay: Antimicrobial activity against Staphylococcus aureus expressing mgrA C12S mutant gene harboring plasmid Pyj335 assessed as visible growth at 2.2 ug/ml after 24 hrs in presence of 20 uM paraquat; type: functional, organism-based
Staphylococcus aureus [18] = assay: Antimicrobial activity against Staphylococcus aureus expressing mgrA C12S mutant gene harboring plasmid Pyj335 assessed as visible growth at 2.6 ug/ml after 24 hrs in presence of 20 uM paraquat; type: functional, organism-based
Staphylococcus aureus [19] = assay: Antimicrobial activity against Staphylococcus aureus expressing mgrA C12S mutant gene harboring Pyj335-His-mgrA assessed as visible growth at 0.6 ug/ml after 24 hrs; type: functional, organism-based
Staphylococcus aureus [20] = assay: Antimicrobial activity against Staphylococcus aureus assessed as visible growth at 0.45 ug/ml after 24 hrs; type: functional, organism-based
Staphylococcus aureus [21] = assay: Antimicrobial activity against Staphylococcus aureus assessed as visible growth at 0.45 ug/ml after 24 hrs in presence of 20 uM paraquat; type: functional, organism-based
Staphylococcus aureus [22] = assay: Antimicrobial activity against Staphylococcus aureus assessed as visible growth at 0.75 ug/ml after 24 hrs; type: functional, organism-based
Staphylococcus aureus [23] = assay: Antimicrobial activity against Staphylococcus aureus expressing mgrA C12S mutant gene assessed as visible growth at 0.25 ug/ml after 24 hrs in presence of 20 uM paraquat; type: functional, organism-based
Staphylococcus aureus [24] = assay: Antimicrobial activity against Staphylococcus aureus expressing mgrA C12S mutant gene assessed as visible growth at 0.45 ug/ml after 24 hrs; type: functional, organism-based
Staphylococcus aureus [25] = assay: Antimicrobial activity against Staphylococcus aureus expressing mgrA C12S mutant gene assessed as visible growth at 0.55 ug/ml after 24 hrs; type: functional, organism-based
Staphylococcus aureus [26] = assay: Antimicrobial activity against Staphylococcus aureus expressing mgrA C12S mutant gene assessed as visible growth at 0.55 ug/ml after 24 hrs in presence of 20 uM paraquat; type: functional, organism-based
Staphylococcus aureus [27] = assay: Antimicrobial activity against Staphylococcus aureus expressing mgrA C12S mutant gene harboring Pyj335-His-mgrAC12S assessed as visible growth at 0.20 ug/ml after 24 hrs in presence of 100 uM hydrogen peroxide; type: functional, organism-based
Staphylococcus aureus [28] = assay: Antimicrobial activity against Staphylococcus aureus expressing mgrA C12S mutant gene harboring plasmid Pyj335 assessed as visible growth at 0.20 ug/ml after 24 hrs in presence of 100 uM hydrogen peroxide; type: functional, organism-based
Staphylococcus aureus [29] = assay: Antimicrobial activity against Staphylococcus aureus expressing mgrA C12S mutant gene harboring plasmid Pyj335 assessed as visible growth at 0.20 ug/ml after 24 hrs in presence of 25 uM paraquat; type: functional, organism-based
Staphylococcus aureus [30] = assay: Antimicrobial activity against Staphylococcus aureus expressing mgrA C12S mutant gene harboring Pyj335-His-mgrAC12S assessed as visible growth at 0.20 ug/ml after 24 hrs in presence of 25 uM paraquat; type: functional, organism-based
Staphylococcus aureus [31] = assay: Antimicrobial activity against Staphylococcus aureus expressing mgrA C12S mutant gene harboring plasmid Pyj335 assessed as visible growth at 0.25 ug/ml after 24 hrs; type: functional, organism-based
Staphylococcus aureus [32] = assay: Antimicrobial activity against Staphylococcus aureus expressing mgrA C12S mutant gene harboring plasmid Pyj335 assessed as visible growth at 0.25 ug/ml after 24 hrs in presence of 20 uM paraquat; type: functional, organism-based
Staphylococcus aureus [33] = assay: Antimicrobial activity against Staphylococcus aureus expressing mgrA C12S mutant gene harboring plasmid Pyj335 assessed as visible growth at 0.35 ug/ml after 24 hrs; type: functional, organism-based
Staphylococcus aureus [34] = assay: Antimicrobial activity against Staphylococcus aureus expressing mgrA C12S mutant gene harboring plasmid Pyj335 assessed as visible growth at 0.35 ug/ml after 24 hrs in presence of 20 uM paraquat; type: functional, organism-based
Staphylococcus aureus [35] = assay: Antimicrobial activity against Staphylococcus aureus expressing mgrA C12S mutant gene harboring plasmid Pyj335 assessed as visible growth at 0.45 ug/ml after 24 hrs in presence of 20 uM paraquat; type: functional, organism-based
Staphylococcus aureus [36] = assay: Antimicrobial activity against Staphylococcus aureus expressing mgrA C12S mutant gene harboring plasmid Pyj335 assessed as visible growth at 0.75 ug/ml after 24 hrs; type: functional, organism-based
Staphylococcus aureus [37] = assay: Antimicrobial activity against Staphylococcus aureus expressing mgrA C12S mutant gene harboring Pyj335-His-mgrA assessed as visible growth at 0.25 ug/ml after 24 hrs; type: functional, organism-based
Staphylococcus aureus [38] = assay: Antimicrobial activity against Staphylococcus aureus expressing mgrA C12S mutant gene harboring Pyj335-His-mgrA assessed as visible growth at 0.65 ug/ml after 24 hrs; type: functional, organism-based
Staphylococcus aureus [39] = assay: Antimicrobial activity against Staphylococcus aureus expressing mgrA C12S mutant gene harboring Pyj335-His-mgrA assessed as visible growth at 0.65 ug/ml after 24 hrs in presence of 20 uM paraquat; type: functional, organism-based

SMILES: CN[C@H](CC(C)C)C(=O)N[C@H]1C(=O)N[C@@H](CC(N)=O)C(=O)N[C@H]2C(=O)N[C@H]3C(=O)N[C@H](C(=O)N[C@H](C(=O)O)c4cc(O)cc(O)c4-c4cc3ccc4O)[C@H](O)c3ccc(c(Cl)c3)Oc3cc2cc(c3O[C@@H]2O[C@H](CO)[C@@H](O)[C@H](O)[C@H]2O[C@H]2C[C@](C)(N)[C@H](O)[C@H](C)O2)Oc2ccc(cc2Cl)[C@H]1O [VANCOMYCIN]
- MIC (Staphylococcus aureus [1]): 1.2 µg/mL (≈ 0.828 µM)
- MIC (Staphylococcus aureus [2]): 2.4 µg/mL (≈ 1.66 µM)
- Activity (Staphylococcus aureus [3]): inactive
- Activity (Staphylococcus aureus [4]): 1.4 µg/mL
- Activity (Staphylococcus aureus [5]): 1.4 µg/mL
- Activity (Staphylococcus aureus [6]): 2.2 µg/mL
- Activity (Staphylococcus aureus [7]): 2.2 µg/mL
- Activity (Staphylococcus aureus [8]): 1.8 µg/mL
- Activity (Staphylococcus aureus [9]): 2.2 µg/mL
- Activity (Staphylococcus aureus [10]): 2.2 µg/mL
- Activity (Staphylococcus aureus [11]): 1 µg/mL
- Activity (Staphylococcus aureus [12]): 1.4 µg/mL
- Activity (Staphylococcus aureus [13]): inactive
- Activity (Staphylococcus aureus [14]): Active
- Activity (Staphylococcus aureus [15]): inactive
- Activity (Staphylococcus aureus [16]): Active
- Activity (Staphylococcus aureus [17]): inactive
- Activity (Staphylococcus aureus [18]): Active
- Activity (Staphylococcus aureus [19]): inactive

SMILES: O=C(O)c1cn(C2CC2)c2cc(N3CCNCC3)c(F)cc2c1=O [CIPROFLOXACIN]
- MIC (Staphylococcus aureus [1]): 0.35 µg/mL (≈ 1.06 µM)
- MIC (Staphylococcus aureus [2]): 0.7 µg/mL (≈ 2.11 µM)
- Activity (Staphylococcus aureus [20]): Active
- Activity (Staphylococcus aureus [21]): inactive
- Activity (Staphylococcus aureus [22]): Active
- Activity (Staphylococcus aureus [23]): inactive
- Activity (Staphylococcus aureus [24]): inactive
- Activity (Staphylococcus aureus [25]): inactive
- Activity (Staphylococcus aureus [26]): inactive
- Activity (Staphylococcus aureus [4]): 0.35 µg/mL
- Activity (Staphylococcus aureus [5]): 0.35 µg/mL
- Activity (Staphylococcus aureus [6]): 0.65 µg/mL
- Activity (Staphylococcus aureus [7]): 0.65 µg/mL
- Activity (Staphylococcus aureus [8]): 0.55 µg/mL
- Activity (Staphylococcus aureus [9]): 0.65 µg/mL
- Activity (Staphylococcus aureus [10]): 0.65 µg/mL
- Activity (Staphylococcus aureus [11]): 0.25 µg/mL
- Activity (Staphylococcus aureus [12]): 0.45 µg/mL
- Activity (Staphylococcus aureus [27]): Active
- Activity (Staphylococcus aureus [28]): inactive
- Activity (Staphylococcus aureus [29]): inactive
- Activity (Staphylococcus aureus [30]): Active
- Activity (Staphylococcus aureus [31]): inactive
- Activity (Staphylococcus aureus [32]): inactive
- Activity (Staphylococcus aureus [33]): inactive
- Activity (Staphylococcus aureus [34]): inactive
- Activity (Staphylococcus aureus [35]): inactive
- Activity (Staphylococcus aureus [36]): Active
- Activity (Staphylococcus aureus [37]): inactive
- Activity (Staphylococcus aureus [38]): Active
- Activity (Staphylococcus aureus [39]): Active
